Experimental data published in patent US7709457B2, “Methods and compositions for delivery of pharmaceutical agents” (Genecure Pte Ltd., priority 1999, dated 2010).

What was measured:
MB49 cells [1] = test: Proliferation assay ([14C]-thymidine incorporation), toxicity of transfection agents; assay type: cell-based, murine
Procedure: Proliferation was assayed by measuring [^14C]-thymidine incorporation. 1×10^4 cells were plated per well in a 96 well flat-bottomed tissue culture plate (Nunc, Rosklide, Denmark) and transfected at optimal conditions as described above for the appropriate length of time (2 h and 24 h exposure), washed and incubated with fresh RPMI 1640 at 37° C. After 32 h, supernatants were removed, and cells were rinsed with 1×PBS. Triplicate wells were incubated with […], [^14]-thymidine (specific activity 56.5 mCi/mmol; Du Pont, Wilmington, Del., USA) for 16 h. The samples were harvested as described in Zhang, Y. et al. (1997) Int. J. Cancer 71:851-7. [^14C]-thymidine incorporation was expressed as a percentage of the incorporation in control cells, which consisted of untransfected cells. The non-parametric Mann-Whitney U test was used to calculate statistical significance. Probability values of p<0.05 were considered statistically significant.
A cell proliferation assay was used to gauge the toxicity of the transfection agents. Relative toxicity was measured by comparing proliferation in transfected and untransfected cells, 48 h after plating. Cells were exposed to the transfection agents for 2 h and 24 h.

MB49 cells [2] = test: Nuclear and cytoplasmic accumulation of plasmid DNA by PCR; assay type: cell-based, murine; settings: nuclear and cytoplasmic extracts
Procedure: Nuclear and cytoplasmic fractionation of transfected cells was carried out using gentle lysis with TNE buffer (10 mM Tris, pH (pH8), 1 mM EDTA, 100 mM NaCl, 1% Igepecal) and left on ice for 10 min followed by centrifugation at 7K for 5 min at 4° C. in a microfuge. The supernatant so produced was labelled the cytoplasmic extract and was transferred to a fresh tube. The nuclear extract were prepared by treatment with a proteinase K digestion (100 mM, NaCl, 10 Mm Tris, pH8, 0.5% SDS 25 mM EDTA and 0.1 mg/ml proteinase K) of the pelleted material overnight at 50° C. Nuclear DNA was extracted with phenol/chloroform twice followed by ethanol precipitation. PCR analysis was carried out as described above.
To determine the localization of DNA following transfection with DOTAP and DMBC, nuclear and cytoplasmic extracts were prepared from transfected cells. The presence of DNA in these extracts was determined using PCR. […] The GADPH gene was used to confirm the presence of nuclear DNA in nuclear extracts and the lack of contamination of cytoplasmic fractions with nuclear DNA.

[3] = test system: urothelial cells of the bladder; test: Transfection of murine bladders by intravesical instillation
Procedure: 5-7 week old-female C57BL6 mice were anaesthetized; their bladders were catheterized with 24 G i.v. catheter and flushed with 1×PBS. The DMBC and DNA complex were mixed for 15 min as described above. The final mix was made up to a final volume of 465 μl with 1×PBS for easy instillation and introduced intravesically. Transfection exposure times of 15 min, 30 min, 1 h or 2 h were evaluated. At different time points the bladders were flushed with 1×PBS to remove DNA/DMBC complex. The mice were sacrificed 48 h after treatment. Experiments were done in duplicates.
Cryostat sections of 6 μM in thickness were fixed in 1.25% glutaraldehyde for 10 min at 4° C. followed by incubation with X-gal for 4 h at 37° C. and were counterstained with haematoxylin.

MB49 cells [4] = test: In vitro transfection efficiency of pCMVlacZ, X-gal staining; assay type: cell-based, murine
human tumor xenografts = settings: used by itself; cited from earlier work

1,2-diacyl-3-trimethylammonium propane [DOTAP]
14C-thymidine incorporation, transfected vs untransfected cells (MB49 cells [1]; 2 h exposure): no difference | cell proliferative capacity vs untransfected cells (MB49 cells [1]; 24 h exposure): reduction in cell proliferative capacity but this was not statistically significant | localization of LacZ plasmid DNA (MB49 cells [2]): only found to be in the cytoplasm | structure of bladder cells facing the lumen by transmission electron microscopy ([3]; 2 h transfection exposure, vs untransfected control bladder): did not result in any discernible structural difference | transfection of bladder epithelial cells facing the lumen ([3]; intravesical instillation, mice): did not result in efficient transfection

[Ca+2].[Cl-].[Cl-] [Calcium chloride]
ability to transfect MB49 cells (MB49 cells [4]; MB49 cells, pCMVlacZ, 2 h): Neither calcium chloride (0-40 μg) nor DEAE-Dextran (0-2 μg) nor naked DNA could transfect MB49 cells | Transfection efficiency (MB49 cells [4]; MB49 cells, pCMVlacZ, 2 h, percentage of cells stained blue with X-gal): 0%

methyl-β-cyclodextrin
transfection with cyclodextrin lacking cholesterol (MB49 cells [4]; methyl-β-cyclodextrin by itself in combination with DOTAP and DNA, murine bladder epithelial cells): no transfection of murine bladder epithelial cells | anti-tumor effect (human tumor xenografts): had an anti-tumor effect
